Values joined by “and” are separate entries in the source; they are usually repeats but may differ in a detail not shown here. Equal entries are not always repeated.
Key:
Type in all cases: biochemical
Carposina sasakii GSTs = assay: Inhibition of total GSTs enzyme of Carposina sasakii (CDNB method)
Method: (§1) Experiment: About 50 mg of larvae/nymphs of nine major pests such as Plutella xylostella, Mythimna separata, Pyrausta nubilalis, Chilo suppressalis, Nilaparvata lugens, Spodoptera frugiperda, Helicoverpa armigera, Carposina sasakii, Spodoptera litura were taken, grounded in a mortar pre-cooled at −80° C., and then 1 mL of 100 mM sodium phosphate buffer (1 mM EDTA, pH 7.2) was added and fully homogenized. The homogenate was transferred to a 1.5 mL centrifuge tube at 4° C., and centrifuged at 14,000 g for 30 minutes, and the supernatant was transferred to a new centrifuge tube as the GSTs total enzyme. The protein concentrations of the above total enzymes were determined using the BCA method.
(§2) 100 μL of PBS buffer (100 mM, pH 7.2) containing 1 mM GSH was taken and placed in a 96-well plate, 5 μg of insect total GSTs enzymes and an appropriate concentration of compounds PXG1-PXG29 (29 compounds) of the present invention were added to each well, after uniformly mixing, and allowed to stand at 30° C. for 10 min. Then 100 μL of PBS buffer (100 mM, pH 7.2) containing 1 mM CDNB was added to each well. Immediately after mixing, the mixture was placed in a microplate reader to measure the absorbance at a wavelength of 340 nm (A 340) once every 1 min, the measurement was carried out continuously for 5 min, the light absorption values of each measuring point were recorded and the inhibition rate in vitro of the compounds with different concentrations against insects total GSTs enzymes were calculated. Each group of assays was repeated three times, and total GSTs enzymes inactivated at 100° C. for 5 min were used as negative controls, and GTX was used as positive controls. GraphPad Prism 5 software was used for analysis and calculation of IC50. Relative inhibition was calculated using the following formula:
(§3) [formula] • wherein, A340 is the change of A340 within 5 minutes for the control group, and A340t is the change of A340 within 5 minutes for the experimental group.

PxGSTσ2 = PxGSTσ2 (Plutella xylostella, UniProt Q6F443); assay: Inhibition of PxGSTσ2 recombinant protein; conditions: read-out: 100 μM Inhibition rate %
PxGSTσ2, sequence (Q6F443 entry or part of it): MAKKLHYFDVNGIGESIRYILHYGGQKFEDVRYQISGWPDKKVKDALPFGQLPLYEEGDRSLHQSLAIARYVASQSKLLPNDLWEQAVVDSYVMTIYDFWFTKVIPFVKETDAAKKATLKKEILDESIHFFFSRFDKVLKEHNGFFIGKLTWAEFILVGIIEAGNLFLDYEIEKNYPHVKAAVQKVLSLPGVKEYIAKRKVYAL
Method: (§4) Experiment: 100 μL of PBS buffer (100 mM, pH 7.2) was taken and added to a 96-well plate, 1 μg of PxGSTs recombinant protein and an appropriate concentration of the compounds PXG1-PXG29 of the present invention were added to each well, after uniformly mixing, and allowed to stand at 30° C. for 10 min. Then 100 μL of PBS buffer (100 mM, pH 7.2) containing 1 mM CDNB and 1 mM GSH was successively added to each well. Immediately after mixing, the mixture was placed in a microplate reader to measure the absorbance at a wavelength of 340 nm (A340) once every 1 min, the measurement was continued for 5 min, the light absorption values of each measuring point were recorded and the inhibition rate in vitro of the compounds PXG1-PXG29 of the present invention with different concentrations against PxGSTs recombinant protein were calculated. Each group of assays was repeated three times, and PxGSTs recombinant protein inactivated at 100° C. for 5 min was used as negative control, and GTX was used as positive control. GraphPad Prism 5 software was used for analysis and calculation of IC50. Relative inhibition was calculated using the following formula:
(§5) [formula] • wherein, A340c is the change of A340 […] the control group, an A340t is the change of A340 within 5 minutes for the experimental group.

[1] = molecular target: Spodoptera frugiperda GSTs; assay: Inhibition of total GSTs enzyme of Spodoptera frugiperda (CDNB method)
Method: as §1, §2, §3

PxGSTδ1 = PxGSTδ1 (Plutella xylostella, UniProt D7URW9); assay: Inhibition of PxGSTδ1 recombinant protein; conditions: read-out: 100 μM Inhibition rate %
PxGSTδ1, sequence (D7URW9 entry or part of it): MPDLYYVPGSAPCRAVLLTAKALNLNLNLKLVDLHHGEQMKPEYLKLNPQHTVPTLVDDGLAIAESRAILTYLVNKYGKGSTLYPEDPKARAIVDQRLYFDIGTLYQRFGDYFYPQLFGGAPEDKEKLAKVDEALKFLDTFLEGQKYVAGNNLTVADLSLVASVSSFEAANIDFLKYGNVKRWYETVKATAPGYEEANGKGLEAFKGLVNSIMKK
Method: as §4, §5

PxGSTσ1 = PxGSTσ1 (Plutella xylostella, UniProt Q6F436); assay: Inhibition of PxGSTσ1 recombinant protein; conditions: read-out: 100 μM Inhibition rate %
PxGSTσ1, sequence (Q6F436 entry or part of it): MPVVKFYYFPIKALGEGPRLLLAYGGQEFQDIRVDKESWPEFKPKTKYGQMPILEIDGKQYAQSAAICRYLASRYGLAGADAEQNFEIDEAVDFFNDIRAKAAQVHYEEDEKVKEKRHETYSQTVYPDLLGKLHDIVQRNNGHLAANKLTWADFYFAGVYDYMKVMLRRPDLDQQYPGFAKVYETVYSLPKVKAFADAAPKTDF
Method: as §4, §5

PxGSTε3 = PxGSTε3 (Plutella xylostella, UniProt O77409); assay: Inhibition of PxGSTε3 recombinant protein; conditions: read-out: 100 μM Inhibition rate %
PxGSTε3, sequence (O77409 entry or part of it): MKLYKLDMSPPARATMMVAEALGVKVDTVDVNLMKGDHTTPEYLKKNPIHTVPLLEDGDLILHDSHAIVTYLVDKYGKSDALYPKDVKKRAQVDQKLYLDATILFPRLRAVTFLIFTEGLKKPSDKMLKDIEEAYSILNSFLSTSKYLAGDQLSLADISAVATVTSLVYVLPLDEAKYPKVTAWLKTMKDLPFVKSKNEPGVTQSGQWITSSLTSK
Method: as §4, §5

Chilo suppressalis GSTs = assay: Inhibition of total GSTs enzyme of Chilo suppressalis (CDNB method)
Method: as §1, §2, §3

Nilaparvata lugens GSTs = assay: Inhibition of total GSTs enzyme of Nilaparvata lugens (CDNB method)
Method: as §1, §2, §3

Plutella xylostella GSTs = assay: Inhibition of total GSTs enzyme of Plutella xylostella (CDNB method)
Method: as §1, §2, §3

Pyrausta nubilalis GSTs = assay: Inhibition of total GSTs enzyme of Pyrausta nubilalis (CDNB method)
Method: as §1, §2, §3

[2] = molecular target: Helicoverpa armigera GSTs; assay: Inhibition of total GSTs enzyme of Helicoverpa armigera (CDNB method)
Method: as §1, §2, §3

Mythimna separata GSTs = assay: Inhibition of total GSTs enzyme of Mythimna separata (CDNB method)
Method: as §1, §2, §3

Spodoptera litura GSTs = assay: Inhibition of total GSTs enzyme of Spodoptera litura (CDNB method)
Method: as §1, §2, §3

IC50 (Carposina sasakii GSTs) [µM]	100 μM Inhibition rate % (Carposina sasakii GSTs) [%]	inhibition at 100 µM (PxGSTσ2) [%]	IC50 [1] [µM]	100 μM Inhibition rate % [1] [%]	inhibition at 100 µM (PxGSTδ1) [%]	inhibition at 100 µM (PxGSTσ1) [%]	inhibition at 100 µM (PxGSTε3) [%]	100 μM Inhibition rate % (Chilo suppressalis GSTs) [%]	100 μM Inhibition rate % (Nilaparvata lugens GSTs) [%]	IC50 (Plutella xylostella GSTs) [µM]	100 μM Inhibition rate % (Plutella xylostella GSTs) [%]	IC50 (Pyrausta nubilalis GSTs) [µM]	100 μM Inhibition rate % (Pyrausta nubilalis GSTs) [%]	IC50 [2]	100 μM Inhibition rate % [2] [%]	IC50 (Mythimna separata GSTs) [µM]	100 μM Inhibition rate % (Mythimna separata GSTs) [%]	IC50 (Spodoptera litura GSTs) [µM]	100 μM Inhibition rate % (Spodoptera litura GSTs) [%]	SMILES	further results
> 100	23.07	27.6	> 100	35.46	72.4	36.1	-1.11	26.63	35.05	> 100	25.47	> 100	17.35	> 100 µM	20.74	> 100	42.96	> 100	17.09	O=C(CNc1ccccc1)NNC(=O)c1cc(-c2ccccc2)nn1-c1ccccc1 [PXG3, N′-(1,3-diphenyl-1H-pyrazol-5-yl-carbonyl)-2-(phenylamino) acetohydrazide]	IC50 (Chilo suppressalis GSTs): > 100 µM; IC50 (Nilaparvata lugens GSTs): > 100 µM
> 100	32.54	19.2	> 100	20.93	91	29.4	2.03	5.85	19.24	> 100	−17.71	> 100	−3.85	> 100 µM	9.75	> 100	−2.50	> 100	3.87	COc1ccccc1CC(=O)NNC(=O)c1cc(-c2ccccc2)nn1-c1ccccc1 [PXG10, N′-(1,3-diphenyl-1H-pyrazol-5-yl-carbonyl)-2-(2-methoxyphenyl) acetohydrazide]	IC50 (Chilo suppressalis GSTs): > 100 µM; IC50 (Nilaparvata lugens GSTs): > 100 µM
> 100	76.09	22.6	> 100	20.95	35.3	60.7	-7.28	54.79	8.16	> 100	22.90	> 100	23.84	> 100 µM	8.09	> 100	31.76	> 100	24.52	O=C(NNC(=O)c1cc(-c2ccccc2)nn1-c1ccccc1)c1ccccc1 [PXG11, N′-(1,3-diphenyl-1H-pyrazol-5-yl-carbonyl) benzohydrazine]	IC50 (Chilo suppressalis GSTs): > 100 µM; IC50 (Nilaparvata lugens GSTs): > 100 µM
> 100	19.42	32.5	> 100	19.64	58.7	45.9	5.57	22.03	10.00	> 100	23.03	> 100	15.64	> 100 µM	6.30	> 100	47.16	> 100	31.70	N#Cc1ccc(OCC(=O)NNC(=O)c2cc(-c3ccccc3)nn2-c2ccccc2)cc1 [PXG19, 2-(4-cyanophenoxy)-N′-(1,3-diphenyl-1H-pyrazol-5-yl-carbonyl)acetohydrazide]	IC50 (Chilo suppressalis GSTs): > 100 µM; IC50 (Nilaparvata lugens GSTs): > 100 µM
> 100	19.76	26.9	> 100	22.33	77.7	35.9	6.04	22.83	24.74	> 100	26.35	> 100	15.55	> 100 µM	0.43	> 100	22.92	> 100	12.89	N#Cc1ccccc1OCC(=O)NNC(=O)c1cc(-c2ccccc2)nn1-c1ccccc1 [PXG23, 2-(2-cyanophenoxy)-N′-(1,3-diphenyl-1H-pyrazol-5-yl-carbonyl)acetohydrazide]	IC50 (Chilo suppressalis GSTs): > 100 µM; IC50 (Nilaparvata lugens GSTs): > 100 µM

The next lines start with the compound.

SMILES	IC50 (Carposina sasakii GSTs) [µM]	100 μM Inhibition rate % (Carposina sasakii GSTs) [%]	inhibition at 100 µM (PxGSTσ2) [%]	IC50 [1] [µM]	100 μM Inhibition rate % [1] [%]	inhibition at 100 µM (PxGSTδ1) [%]	inhibition at 100 µM (PxGSTσ1) [%]	inhibition at 100 µM (PxGSTε3) [%]	100 μM Inhibition rate % (Chilo suppressalis GSTs) [%]	100 μM Inhibition rate % (Nilaparvata lugens GSTs) [%]	IC50 (Plutella xylostella GSTs) [µM]	100 μM Inhibition rate % (Plutella xylostella GSTs) [%]	IC50 (Pyrausta nubilalis GSTs) [µM]	100 μM Inhibition rate % (Pyrausta nubilalis GSTs) [%]	IC50 [2]	100 μM Inhibition rate % [2] [%]	IC50 (Mythimna separata GSTs) [µM]	100 μM Inhibition rate % (Mythimna separata GSTs) [%]	IC50 (Spodoptera litura GSTs) [µM]	100 μM Inhibition rate % (Spodoptera litura GSTs) [%]	further results
CN(C)S(=O)(=O)c1ccc(C(=O)NNC(=O)c2cc(-c3ccccc3)nn2-c2ccccc2)cc1 [PXG29, 4-[N′-(1,3-diphenyl-1H-pyrazol-5-yl-carbonyl) hydrazinocarbonyl]-N,N-dimethyl phenyl-1-sulfonamide]	> 100	33.57	44.7	> 100	4.82	16.7	53.3	0.03	13.81	−10.71	> 100	9.32	> 100	10.83	> 100 µM	10.99	> 100	4.90	> 100	4.60	IC50 (Chilo suppressalis GSTs): > 100 µM; IC50 (Nilaparvata lugens GSTs): > 100 µM
CCCCCCSC[C@H](NC(=O)CC[C@H](N)C(=O)O)C(=O)NCC(=O)O [GTX, S-Hexylglutathione, reference compound]	6.87	95.39	84.8		95.20	66.5	67.3	50.7	99.97	95.14	12.9	73.72	23.5	86.35	14.4 µM and 14.1 µM	96.30	16.3	87.20	15.2	85.61	
CC1(CCc2ccccc2)NC(=O)N(NC(=O)c2cc(-c3ccccc3)nn2-c2ccccc2)C1=O (centres unmarked) [PXG15, N-[4-methyl-2,5-dioxo-4-(2-phenylethyl)imidazolin-1-yl]-1,3-diphenyl-1H-pyrazol-5-yl-carboxamide]	> 100	17.01	25.6	> 100	0.41	7.86	42.5	4.62	18.72	2.97	> 100	16.83	> 100	4.69	> 100 µM	−1.48	> 100	4.29	> 100	−5.22	IC50 (Chilo suppressalis GSTs): > 100 µM; IC50 (Nilaparvata lugens GSTs): > 100 µM

Reference: patent publication US12617771B2, “Diphenylpyrazole compound, and preparation method therefor and application thereof” (NORTHWEST A&F UNIVERSITY, priority 2021, dated 2026)
